Patent US8283474B2, “Azabicyclo (3.1.0) hexane derivatives useful as modulators of dopamine D3 receptors” (Glaxo Group Limited, priority 2004, dated 2012)

Target: T1, dopamine D3 receptor (Homo sapiens, UniProt P35462)
T1 construct: expressed in transfected cells; membrane preparation
Experiment: GTPγS scintillation proximity assay (GTPγS-SPA), antagonist format, CHO_D3 membranes
Format: biochemical
Conditions: difference in functional pKi at D3 versus the opposite enantiomer of the same Example
Protocol: Functional potency and intrinsic activity of compounds of this invention can be measured by the following GTPγS scintillation proximity assay (GTPγS-SPA). Cells used in the study are Chinese Hamster Ovary (CHO) Cells.
Cell membranes are prepared as follows. Cell pellets are resuspended in 10 volumes of 50 mM HEPES, 1 mM EDTA pH 7.4, using KOH. On the day the following proteases are added to the buffer just prior to giving the homogenisation buffer. 10^−6M Leupeptin(Sigma L2884)−5000×stock=5 mg/ml in buffer 25 ug/ml Bacitracin(Sigma B0125)−1000×stock=25 mg/ml in buffer 1 mM PMSF−1000×stock=17 mg/ml in 100% ethanol 2×10^−6M Pepstain A−1000×stock=2 mM in 100% DMSO
The cells are homogenised by 2×15 second bursts in a 1 litre Glass Waring blender in a class two biohazard cabinet. The resulting suspension is spun at 500 g for 20 mins (Beckman T21 centrifuge: 1550 rpm). The supernatant is withdrawn with a 25 ml pipette, aliquotted into pre-chilled centrifuge tubes and spun at 48,000 g to pellet membrane fragments (Beckman T1270: 23,000 rpm for 30 mins). The final 48,000 g pellet is resuspended in Homogenisation Buffer, (4× the volume of the original cell pellet). The 48,000 g pellet is resuspended by vortexing for 5 seconds and homogenized in a dounce homogenizer 10-15 stokes. The prep is distributed into appropriate sized aliquots, (200-1000 ul), in polypropylene tubes and store at −80° C. Protein content in the membrane preparations is evaluated with the Bradford protein assay.
The final top concentration of test drug is 3 uM in the assay and 11 points serial dilution curves 1:4 in 100% DMSO are carried out using a Biomek FX. The test drug at 1% total assay volume (TAV) is added to a solid, white, 384 well assay plate. 50% TAV of precoupled (for 90 mins at 4° C.) membranes, 5 μg/well, and Wheatgerm Agglutinin Polystyrene Scintillation Proximity Assay beads (RPNQ0260, Amersham), 0.25 mg/well, in 20 mM HEPES pH 7.4, 100 mM NaCl, 10 mM MgCl2, 60 μg/ml saponin and 30 μM GDP is added. The third addition was a 20% TAV addition of either buffer, (agonist format) or EC80 final assay concentration of agonist, Quinelorane, prepared in assay buffer (antagonist format). The assay was started by the addition of 29% TAV of GTPγ[^35S] 0.38 nM final (37 MBq/ml, 1160 Ci/mmol, Amersham). After all additions assay plates are spun down for 1 min at 1,000 rpm. Assay plates are counted on a Viewlux, 613/55 filter, for 5 min., between 2-6 hours after the final addition.
The effect of the test drug over the basal generates EC50 value by an iterative least squares curve fitting programme, expressed in the table as pEC50 (i.e. −log EC50). The ratio between the maximal effect of the test drug and the maximal effect of full agonist, Quinelorane, generates the Intrinsic Activity (IA) value (i.e. IA=1 full agonist, IA<1 partial agonist). fpKi values of test drug are calculated from the IC50 generated by “antagonist format” experiment, using Cheng & Prusoff equation: fKi=IC50/1+([A]/EC50) where: [A] is the concentration of the agonist […] in the assay and EC50 is the 5-HT EC50 value obtained in the same experiment. fpKi is defined as −log fKi.

T1 sequence (P35462 whole entry): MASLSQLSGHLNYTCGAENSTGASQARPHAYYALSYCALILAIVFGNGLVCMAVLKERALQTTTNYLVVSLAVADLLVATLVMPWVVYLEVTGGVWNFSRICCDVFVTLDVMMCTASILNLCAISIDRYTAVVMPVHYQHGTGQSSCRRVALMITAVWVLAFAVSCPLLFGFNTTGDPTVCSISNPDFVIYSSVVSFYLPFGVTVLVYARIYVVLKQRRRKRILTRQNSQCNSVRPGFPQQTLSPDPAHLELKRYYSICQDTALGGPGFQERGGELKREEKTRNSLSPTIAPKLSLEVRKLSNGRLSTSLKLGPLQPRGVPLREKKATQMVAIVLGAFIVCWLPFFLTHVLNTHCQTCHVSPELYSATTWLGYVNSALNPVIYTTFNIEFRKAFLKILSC

SMILES	fpKi (D3) higher than the other Enantiomer
Cc1ncoc1-c1nnc(SCCCN2C[C@@H]3C[C@]3(c3cc(F)cc(C(F)(F)F)c3)C2)n1C (single isomer, unassigned; enantiomer 1) [Example 110 Enantiomer 1]	> 1 log-unit
COc1ccc([C@]23C[C@H]2CN(CCCSc2nnc(-c4cccc5nc(C)ccc45)n2C)C3)cc1 (single isomer, unassigned) [Example 1 Enantiomer 1]	> 1 log-unit
Cc1ncoc1-c1nnc(SCCCN2C[C@@H]3C[C@]3(c3ccc(Br)cc3)C2)n1C (single isomer, unassigned) [Example 9 Enantiomer 1]	> 1 log-unit
Cc1ccc2c(-c3nnc(SCCCN4C[C@@H]5C[C@]5(c5ccc(C(C)(C)C)cc5)C4)n3C)cccc2n1 (single isomer, unassigned) [Example 5 Enantiomer 2]	> 0.9 log-unit
Cc1ncoc1-c1nnc(SCCCN2C[C@]3(C)C[C@@]3(c3cccc(Cl)c3)C2)n1C (single isomer, unassigned) [Example 22 Enantiomer 1]	> 1 log-unit
Cc1ccc2c(-c3nnc(SCCCN4C[C@@H]5C[C@]5(c5ccc(Cl)c(Cl)c5)C4)n3C)cccc2n1 (single isomer, unassigned) [Example 4 Enantiomer 1]	> 0.6 log-unit
Cc1ncoc1-c1nnc(SCCCN2C[C@@H]3C[C@]3(c3ccc(F)cc3)C2)n1C (single isomer, unassigned) [Example 21 Enantiomer 1]	> 1 log-unit
Cc1ncoc1-c1nnc(SCCCN2C[C@@H]3C[C@]3(c3cccc(C(F)(F)F)c3F)C2)n1C (single isomer, unassigned; enantiomer 2) [Example 111 Enantiomer 2]	> 1 log-unit
Cc1ncoc1-c1nnc(SCCCN2C[C@@H]3C[C@]3(c3ccc(Cl)cc3)C2)n1C (single isomer, unassigned) [Example 20 Enantiomer 1]	> 1 log-unit
Cc1ccc2c(-c3nnc(SCCCN4CC5CC5(c5ccc(Cl)cc5)C4)n3C)cccc2n1 (single isomer, unassigned; enantiomer 1) [Example 29 Enantiomer 1]	> 1 log-unit
Cc1ccc2c(-c3nnc(SCCCN4C[C@@H]5C[C@]5(c5ccc(Br)cc5)C4)n3C)cccc2n1 (single isomer, unassigned) [Example 2 Enantiomer 2]	> 1 log-unit
Cc1ccc2c(-c3nnc(SCCCN4C[C@@H]5C[C@]5(c5ccccc5)C4)n3C)cccc2n1 (single isomer, unassigned) [Example 3 Enantiomer 2]	> 1 log-unit

Second part, the compound after the results:

fpKi (D3) higher than the other Enantiomer	SMILES
> 1 log-unit	Cc1ncoc1-c1nnc(SCCCN2C[C@@H]3C[C@]3(c3ccc(C(F)(F)F)cc3F)C2)n1C.Cl (single isomer, unassigned) [Example 16 Enantiomer 2]
> 1 log-unit	Cc1ncoc1-c1nnc(SCCCN2C[C@@H]3C[C@]3(c3cccc(F)c3)C2)n1C (single isomer, unassigned) [Example 23 Enantiomer 1]
> 1 log-unit	Cc1ncoc1-c1nnc(SCCCN2C[C@@H]3C[C@]3(c3ccc(OC(F)(F)F)cc3)C2)n1C (single isomer, unassigned) [Example 30 Enantiomer 1]
> 1 log-unit	Cc1nc2cc([C@]34C[C@H]3CN(CCCSc3nnc(-c5ocnc5C)n3C)C4)ccc2s1 (single isomer, unassigned) [Example 72 Enantiomer 1]
> 1 log-unit	Cc1ncoc1-c1nnc(SCCCN2C[C@@H]3C[C@]3(c3ccc4c(cnn4C)c3)C2)n1C (single isomer, unassigned) [Example 74 Enantiomer 1]
> 1 log-unit	Cc1ncoc1-c1nnc(SCCCN2C[C@@H]3C[C@]3(c3ccc(C(F)(F)F)cn3)C2)n1C (single isomer, unassigned) [Example 96 Enantiomer 2]
> 1 log-unit	CCC(=O)c1cc([C@]23C[C@H]2CN(CCCSc2nnc(-c4ocnc4C)n2C)C3)ccc1OC (single isomer, unassigned) [Example 71 Enantiomer 1]
> 1 log-unit	COc1ccc([C@]23C[C@H]2CN(CCCSc2nnc(-c4ocnc4C)n2C)C3)cc1C(C)=O (single isomer, unassigned) [Example 19 Enantiomer 1]
> 1 log-unit	Cc1ncoc1-c1nnc(SCCCN2C[C@@H]3C[C@]3(c3cccc(C(F)(F)F)c3)C2)n1C (single isomer, unassigned) [Example 17 Enantiomer 1]
> 1 log-unit	COc1cccc([C@]23C[C@H]2CN(CCCSc2nnc(-c4ocnc4C)n2C)C3)c1 (single isomer, unassigned) [Example 24 Enantiomer 1]
> 1 log-unit	Cc1ncoc1-c1nnc(SCCCN2C[C@@H]3C[C@]3(c3cc(C(F)(F)F)ccc3F)C2)n1C (single isomer, unassigned) [Example 36 Enantiomer 2]
